Source: US20120003661A1, “METHODS AND DEVICES FOR THE SELECTIVE DETECTION OF MICROORGANISMS” (C3 JIAN, INC., priority 2010, published 2012)
Entries after “also recorded” stand apart in the source; their conditions may differ. Read-outs that look alike come from different tables or passages of the source.

System: bacteria, fungi, and/or yeasts
Type: binding
[1] = microorganism(s) listed as target(s) of the targeting peptide, wrapped target lists given cell by cell
[2] = microorganism(s) that the targeting peptide binds, as listed in Table 2
[3] = microorganism(s) the targeting peptide binds, as listed in Table 2

Row | Substance | Target(s) [1] | Target(s) [3] | other results
1 | PF-020 (MKIILLLFLIFGFIVVVTLKSEHQLTLFSI) | S. epidermidis, M. luteus, C. albicans,; also recorded: MRSA, S. pneumoniae,; also recorded: E. faecalis | – | –
2 | PF-C136 (LILSYQASVYPLFAYLCQQKDY) | – | – | Target(s) [2]: A. naeslundii, F. nucleatum, P. gingivalis,; also recorded: S. mutans, T. denticola
3 | 1T-239 (ADDLLNKRLTDLIMENAETVKTIDLDNSD) | – | A. naeslundii, S. gordonii, S. mitis,; also recorded: S. mutans, S. oralis, S. sanguinis | –
4 | 1T-168 (ELHRIMSTEKIGAVTKMNFDTAPIMSILPIDIYPKEVGIGS) | – | A. naeslundii, F. nucleatum, P. gingivalis,; also recorded: S. epidermidis, S. gordonii,; also recorded: S. mitis, S. mutans, S. oralis,; also recorded: S. salivarious, S. sanguinis | –
5 | 1T-268 (PITPKKEKCGLGTYAPKNPVFSKSRV) | F. nucleatum, S. mutans, S. oralis,; also recorded: S. sanguinis | – | –
6 | 1T-42 (TVLDWLSLALATGLFVYLLVALLRADRA) | – | S. aureus, S. epidermidis, C. xerosis,; also recorded: C. striatum, P. aeruginosa | –
7 | PF-038 (MAYKDEGKETKFAVKGYKD) | M. luteus | – | –
8 | 1T-304 (STAGEASRRTASEASRRTAAKLRG) | P. gingivalis | – | –
9 | 1T-43 (DRCLSVLSWSPPKVSPLI) | – | C. jeikium, P. aeruginosa | –
10 | 1T-49 (SLVRIHDQQPWVTRGAFIDAARTCS) | – | S. aureus, S. epidermidis, C. jeikeium,; also recorded: P. aeruginosa | –
11 | 1T-86 (HRKNPVLGVGRRHRAHNVA) | – | S. mitis, S. oralis, S. salivarious | –
12 | PF-138 (AVHHSLLFR) | S. epidermidis, M. luteus, P. mirabilis,; also recorded: E. coli, C. albicans,; also recorded: MRSA, C. jeikeium, C. jejuni | – | –
13 | PF-143 (LSPRPIIVSRRSRADNNNDWSR) | S. epidermidis, MRSA, C. jeikeium | – | –
14 | 1T-147 (GVENRRFYERDVSKVSMMTSEAVAPRGGSK) | – | A. naeslundii, F. nucleatum, P. gingivalis,; also recorded: T. denticola, S. gordonii,; also recorded: S. mitis, S. mutans, S. oralis,; also recorded: S. salivarious, S. sanguinis | –
15 | 1T-184 (ALLVLNLLLMQFFFGKNM) | – | A. naeslundii, F. nucleatum, P. gingivalis,; also recorded: T. denticola, S. gordonii,; also recorded: S. mitis, S. mutans, S. oralis,; also recorded: S. salivarious, S. sanguinis | –
16 | PF-C120 (ASLSTMTFKVMELKELIILLCGLTMLMIQTEFV) | – | – | Target(s) [2]: A. naeslundii, F. nucleatum, P. gingivalis,; also recorded: S. mutans, T. denticola
17 | 1T-41 (KRGSKIVIAIAVVLIVLAGVWVW) | – | S. mutans, S. aureus, S. epidermidis,; also recorded: C. jeikeium, C. striatum,; also recorded: P. aeruginosa | –
18 | PF-C062 (PLARATEVVATLFIICSLLLYLTR) | – | – | Target(s) [2]: A. naeslundii, F. nucleatum, P. gingivalis,; also recorded: S. mutans, T. denticola
19 | Rv2561 (QHQCPGMRPAPADAPEVPHAARADQKRPSLRL) | C. albicans | – | –
20 | 1T-176 (PVGDIMSGFLRGANQPRFLLDHISFGS) | – | A. naeslundii, P. gingivalis, S. epidermidis,; also recorded: S. gordonii, S. mitis,; also recorded: S. mutans, S. oralis, S. salivarious,; also recorded: S. sanguinis | –
21 | 1T-243 (SENIARFAAAFENEQVVSYARWFRRSWRGSGSSSRF) | – | A. naeslundii, P. gingivalis, S. epidermidis,; also recorded: S. gordonii, S. mitis,; also recorded: S. mutans, S. oralis, S. salivarious,; also recorded: S. sanguinis | –
22 | PF-165 (GPVSVVASLRRGTTVQRHSQNNHNKGKP) | MRSA, C. jejuni | – | –
23 | 1T-271 (FLIQKFLLIKTFPPYRKKYVVIVSQTGTA) | A. naeslundii, F. nucleatum, P. gingivalis,; also recorded: S. epidermidis, S. gordonii,; also recorded: S. mitis, S. mutans, S. oralis,; also recorded: S. salivarious, S. sanguinis | – | –
24 | PF-026 (SIHFIN) | S. epidermidis, M. luteus, P. mirabilis,; also recorded: C. albicans, MRSA, E. faecalis,; also recorded: C. jeikeium | – | –

Row | Substance | Target(s) [1] | Target(s) [3] | other results
25 | 1T-39 (FGFCVWMYQLLAGPPGPPA) | – | S. mutans, P. aeruginosa | –
26 | PF-786 (LSERERRRLKRGII) | – | – | Target(s) [2]: Mycobacteria spp.
27 | PF-C285 (FTIIELKKQKIKHGENNKKTAHPLNEPFCARA) | – | – | Target(s) [2]: A. naeslundii, F. nucleatum, P. gingivalis,; also recorded: S. mutans, T. denticola
28 | 1T-29 (GSVIKKRRKRMSKKKHRKMLRRTRVQRRKLGK) | – | S. mutans, S. aureus, S. epidermidis,; also recorded: C. jeikeium, C. xerosis,; also recorded: C. striatum, P. aeruginosa | –
29 | 1T-197 (TEILNFLITVCADRENWKIKHGLSDSVLLIFFARFTGAEYW) | – | A. naeslundii, F. nucleatum, P. gingivalis,; also recorded: S. epidermidis, S. gordonii,; also recorded: S. mitis, S. mutans, S. oralis,; also recorded: S. salivarious, S. sanguinis | –
30 | 1T-48 (KLQVHHGRATHTLLLQPPLCAPGTIR) | – | S. aureus, S. epidermidis, C. jeikeium,; also recorded: C. xerosis, C. striatum,; also recorded: P. aeruginosa | –
31 | 1T-201 (KRKHENVIVAEEMRVIKN) | – | S. sanguinis | –
32 | PF-057 (TMIVISIPRFEEYMKARHKKWM) | S. epidermidis, M. luteus, P. mirabilis,; also recorded: E. coli, P. aeruginosa,; also recorded: C. albicans, MRSA, S. pneumoniae,; also recorded: E. faecalis, C. jeikeium,; also recorded: C. jejuni | – | –
33 | PF-010 (MDIDVNKLLQAFVYFKSFEKLRHNNS) | S. epidermidis, M. luteus, E. coli,; also recorded: C. albicans | – | –
34 | PF-044 (KLKKYIHKPD) | S. epidermidis, M. luteus, MRSA,; also recorded: C. jeikeium | – | –
35 | TT-306 (KILNEAEGKLLKVIEKNGEIDIEEI) | F. nucleatum | – | –
36 | 1T-272 (QLAPIDKQLKAVKKIAFYESESTAAKAVTVA) | F. nucleatum, S. mutans, S. oralis,; also recorded: S. sanguinis | – | –
37 | 1T-76 (EMRLSKFFRDFILWRKK) | – | S. pneumoniae | –
38 | 1T-125 (DAITGGNPPLSDTDGLRP) | – | S. epidermidis, S. gordonii, S. mutans,; also recorded: S. oralis | –
39 | 1T-216 (FFLNVIAIRIPHF) | – | S. sanguinis | –
40 | 1T-104 (RAVAAHLQGRHHGHQVRRQRHGQR) | – | S. mitis | –
41 | 1T-145 (VEAGKRNISLENIEKISKGLGISISELFKYIEEGEDKIG) | – | S. mitis, S. mutans, S. oralis | –
42 | PF-065 (LEKNTRDNYFIHAIDRIYINTSKGLFPESELVAWG) | M. luteus, E. coli, P. aeruginosa,; also recorded: C. albicans, MRSA, S. pneumoniae,; also recorded: C. jeikeium, C. jejuni | – | –
43 | PF-C045 (FREGMGWPLSNEGSPTAPLPKHRNQV) | – | – | Target(s) [2]: A. naeslundii, T. denticola
44 | PF-028 (ALDCSEQSVILWYETILDKIVGVIK) | S. epidermidis, M. luteus, MRSA | – | –
45 | 1T-196 (KPEKEKLDTNTLMKVVNKALSLFDRLLIKFGA) | – | F. nucleatum, S. sanguinis | –
46 | PF-041 (ELLVILPGFI) | MRSA | – | –
47 | 1T-178 (LLASHPERLSLGVFFVYRVLHLLLENT) | – | A. naeslundii, F. nucleatum, P. gingivalis,; also recorded: S. epidermidis, S. gordonii,; also recorded: S. mitis, S. mutans, S. oralis,; also recorded: S. salivarious, S. sanguinis | –
48 | PF-023 (MTKNTIISLENEKTQINDSENESSDLRKAK) | M. luteus, C. jeikeium | – | –

Row | Substance | Target(s) [1] | Target(s) [3] | other results
49 | 1T-262 (LSLPLIVLTKSI) | A. naeslundii, F. nucleatum, P. gingivalis,; also recorded: S. epidermidis, S. gordonii,; also recorded: S. mitis, S. mutans, S. oralis,; also recorded: S. salivarious, S. sanguinis | – | –
50 | PF-C134 (NELMKYPATLTATATTPGIKYSHLCSVCL) | – | – | Target(s) [2]: A. naeslundii, F. nucleatum, P. gingivalis,; also recorded: S. mutans, T. denticola
51 | 1T-180 (VVFGGGDRLV) | – | A. naeslundii, F. nucleatum, P. gingivalis,; also recorded: T. denticola, S. gordonii,; also recorded: S. mitis, S. mutans, S. oralis,; also recorded: S. salivarious, S. sanguinis | –
52 | PF-101 (DPVPERQEQACACHRTAKPGK) | S. mutans | – | –
53 | 1T-10 (SPAGLPGDGDEA) | – | M. xanthus | –
54 | 1T-159 (IFSLHHFALICSEMGTFAVSKRAKYKWEVL) | – | P. gingivalis | –
55 | 1T-289 (EPSADIYLSAKDTKT) | F. nucleatum, P. gingivalis, S. gordonii,; also recorded: S. mitis, S. mutans, S. oralis,; also recorded: S. sanguinis | – | –
56 | PF-067 (DLIVKVHICFVVKTASGYCYLNKREAQAAI) | S. epidermidis, M. luteus, P. mirabilis,; also recorded: E. coli, P. aeruginosa,; also recorded: C. albicans, MRSA, S. pneumoniae,; also recorded: E. faecalis, C. jeikeium,; also recorded: C. jejuni | – | –
57 | 1T-103 (AQFYEAIITGYALGAGQRIGQL) | – | A. naeslundii, F. nucleatum, P. gingivalis,; also recorded: S. epidermidis, S. gordonii,; also recorded: S. mitis, S. mutans, S. oralis,; also recorded: S. sanguinis | –
58 | 1T-11 (RISE) | – | S. mutans, S. epidermidis, P. aeruginosa | –
59 | 1T-153 (YIACPGYFY) | – | A. naeslundii, F. nucleatum, P. gingivalis,; also recorded: S. epidermidis, S. gordonii,; also recorded: S. mitis, S. mutans, S. oralis,; also recorded: S. salivarious, S. sanguinis | –
60 | 1T-263 (FIAVSFTGNPATFKLVIGCKADN) | A. naeslundii, F. nucleatum, P. gingivalis,; also recorded: S. epidermidis, S. gordonii,; also recorded: S. mitis, S. oralis, S. salivarious,; also recorded: S. sanguinis | – | –
61 | 1T-100 (LDPLEPRIAPPGDRSHQGAPACHRDPLRGRSARDAER) | – | S. gordonii, S. mitis, S. mutans | –
62 | 1T-119 (SPATQKAPTRAQPSRAPVQDCGDGRPTAAPDDVERLSPR) | – | S. gordonii, S. mitis, S. mutans,; also recorded: S. oralis | –
63 | 1T-127 (YDPVPKRKNKNSEGKREE) | – | A. naeslundii, F. nucleatum, P. gingivalis,; also recorded: T. denticola, S. gordonii,; also recorded: S. mitis, S. mutans, S. oralis,; also recorded: S. salivarious, S. sanguinis | –
64 | PF-795 (ALHKSGIQVIADWVPDQIYN) | – | – | Target(s) [2]: S. mutans
65 | PF-129 (MKLLARDPWVCAWNDIW) | S. epidermidis, MRSA, E. faecalis,; also recorded: C. jeikeium, C. jejuni | – | –
66 | 1T-105 (GEGLPPPVLHLPPPRMSGR) | – | S. epidermidis, S. gordonii, S. mitis,; also recorded: S. mutans, S. oralis | –
67 | 1T-4 (LDAYGELVGGN) | – | L. casei; also recorded: S. mutans, S. gordonii, S. sanguinis,; also recorded: S. oralis, V. atypica, | –
68 | PF-048 (LYFAFKKYQERVNQAPNIEY) | S. epidermidis, M. luteus, E. coli,; also recorded: MRSA, C. jeikeium, C. jejuni | – | –
69 | PF-787 (MTERQRRALLKQHPEVVSWSDYLEKRKRRTGTAG) | – | – | Target(s) [2]: Mycobacteria spp.
70 | PF-152 (VGYFIWKDSHSRKG) | S. epidermidis, C. albicans,; also recorded: MRSA, E. faecalis, C. jeikeium | – | –
71 | 1T-107 (SPVPRFTAVGGVSRGSP) | – | A. naeslundii, S. epidermidis, S. gordonii,; also recorded: S. mitis, S. mutans, S. oralis,; also recorded: S. salivarious, S. sanguinis | –
